Experimental data taken from BindingDB's records for doi:10.1021/acs.jmedchem.3c00250 (n/a, 2023).

Molecular target: Protein arginine N-methyltransferase 5/MEP50 complex (Homo sapiens)
Test: Inhibition of full-length recombinant PRMT5/full-length recombinant MEP50 (unknown origin) expressed in baculovirus infected Sf21 cells using biotinylated H4R3(Mel) peptide as substrate preincubated for 60 mins followed by substrate addition and measured for 150 minutes in the presence of SAM by methylation assay

CC(=O)N1CCC(Nc2cc(C(=O)N3CC[C@H](N4CCc5ccccc5C4)[C@@H](O)C3)c(F)cn2)CC1
EC50: 0.9 nM
